Source: patent publication US20060111381A1, “Amidine compounds” (priority 2002, published 2006)
Where “and” joins values, the source holds several entries; their conditions need not be identical. Identical values can stand only once.

Key:
ICR mice [1] = test: Phenylquinone-induced writhing model in mice (writhes counted in following 5-10 minute period); type: in vivo; details: for No. of Writhings, Individual: individual mice; for % Inhibition: relative to vehicle group
Protocol: (§1) Testing on compound KRS-6-48 was carried out under contract by MDS Services—Taiwan Ltd. KRS-6-48 was evaluated for possible analgesic activity in the phenylquinone-induced writhing model in mice (Siegmund et al, 1957). A serial 2-fold dosage variance was used in the test, from 128 mg/kg to 1 mg/kg (8 doses in total). Groups of 3 male or female ICR mice weighing 22±2 g were employed. Variant doses (1, 2, 4, 8, 16, 32, 64 and 128 mg/kg) of test substances were administered intraperitoneally (IP). A vehicle of 2% Tween 80 in 0.9% NaCl was used for the intraperitoneal injection. The control group received vehicle alone. […] A reduction in the number of writhes by 50 percent or more (≧50%) relative to the vehicle-treated group indicated possible analgesic activity.
Testing on compounds KRS-6-41, KRS-6-51, and KRS-6-71 was also carried out under contract by MDS Services—Taiwan Ltd. The study was designed to evaluate the effects of the compounds as analgesics in the phenylquinone-induced writhing assay described in detail in Example 10 (Siegmund et al, 1957).
as §1, with “In each case, a” for “Testing on compound KRS-6-48 was carried out under contract by MDS Services—Taiwan Ltd. KRS-6-48 was evaluated for possible analgesic activity in the phenylquinone-induced writhing model in mice (Siegmund et al, 1957). A”

ICR mice [2] = test: Straub tail behaviour (indicator of CNS activity) in writhing-study mice
ICR mice [3] = test: Phenylquinone-induced writhing model in mice, KRS-6-98 study (writhes counted in following 10-15 minute period); type: in vivo; details: for Number of Writhings, Average / Number of Writhings, Individual / % Inhibition: 10-15 minute period; for Number of Writhings, Individual: individual mice; for % Inhibition: relative to vehicle group
Protocol: Testing of compound KRS-6-98 was carried out under contract by MDS Pharma Services—Taiwan. The study was essentially the same as that set out in Examples 12 and 13, and was designed to evaluate the effect of the compound as an analgesic in the phenylquinone-induced writhing assay described in detail in Example 10 (Siegmund et al, 1957).
A serial two-fold dosage variance was used in the test, from 128 mg/kg to 1 mg/kg (8 doses in total). Twenty six groups of 3 male or female ICR mice weighing 22±2 g were employed. The variant doses of the test substance were administered intraperitoneally (IP). A vehicle of 2% Tween 80 in 0.9% NaCl was used for the intraperitoneal injection. The control group received the vehicle alone. […] A reduction of the number of writhes by 50% or more (≧50%) relative to the vehicle-treated group indicate a possible analgesic activity.

human μ-opiate receptor = molecular target: T1, human μ-opiate receptor (Homo sapiens, UniProt P35372); test: In vitro opiate receptor radioligand binding assay (MDS 260410); details: test compound 10 μM, read-out: Percentage Inhibition of Radioligand Binding
T1 construct: purchased MDS Pharma Services 260410
T1 sequence (P35372 whole entry): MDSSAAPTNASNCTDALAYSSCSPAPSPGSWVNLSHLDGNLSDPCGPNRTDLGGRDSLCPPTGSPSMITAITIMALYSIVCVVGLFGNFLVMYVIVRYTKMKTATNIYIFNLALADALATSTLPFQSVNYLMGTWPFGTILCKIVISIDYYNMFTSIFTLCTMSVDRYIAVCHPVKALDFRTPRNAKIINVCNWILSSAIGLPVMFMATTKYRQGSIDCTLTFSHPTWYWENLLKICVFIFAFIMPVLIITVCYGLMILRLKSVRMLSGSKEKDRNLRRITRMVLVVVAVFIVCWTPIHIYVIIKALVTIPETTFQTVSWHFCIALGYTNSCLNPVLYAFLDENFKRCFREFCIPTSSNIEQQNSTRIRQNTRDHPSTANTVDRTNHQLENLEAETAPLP
Protocol: (§2) To characterise the target specificity of the compounds, KRS-6-41, KRS-6-48 and KRS-6-51 were tested at a concentration of 10 μM for their ability to inhibit the binding of a radioligand to human δ-, κ-, or μ-opiate receptors in vitro using commercially available assays (MDS Pharma Services; assay catalogue numbers 260110, 260210 and 260410 respectively).

human κ-opiate receptor = molecular target: T2, human κ-opiate receptor (Homo sapiens, UniProt P41145); test: In vitro opiate receptor radioligand binding assay (MDS 260210); details: test compound 10 μM, read-out: Percentage Inhibition of Radioligand Binding
T2 construct: purchased MDS Pharma Services 260210
T2 sequence (P41145 whole entry): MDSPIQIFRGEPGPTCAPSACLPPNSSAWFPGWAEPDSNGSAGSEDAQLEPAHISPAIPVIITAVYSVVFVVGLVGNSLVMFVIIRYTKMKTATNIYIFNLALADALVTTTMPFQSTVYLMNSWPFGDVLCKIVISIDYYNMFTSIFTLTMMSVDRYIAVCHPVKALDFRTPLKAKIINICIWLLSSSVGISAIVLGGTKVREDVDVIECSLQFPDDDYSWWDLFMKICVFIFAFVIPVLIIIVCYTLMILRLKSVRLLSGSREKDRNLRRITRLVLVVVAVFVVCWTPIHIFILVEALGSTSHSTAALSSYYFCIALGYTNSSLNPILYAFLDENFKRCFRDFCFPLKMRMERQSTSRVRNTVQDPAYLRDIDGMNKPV
Protocol: as §2

human δ-opiate receptor = molecular target: T3, human δ-opiate receptor (Homo sapiens, UniProt P41143); test: In vitro opiate receptor radioligand binding assay (MDS 260110); details: test compound 10 μM, read-out: Percentage Inhibition of Radioligand Binding
T3 construct: purchased MDS Pharma Services 260110
T3 sequence (P41143 whole entry): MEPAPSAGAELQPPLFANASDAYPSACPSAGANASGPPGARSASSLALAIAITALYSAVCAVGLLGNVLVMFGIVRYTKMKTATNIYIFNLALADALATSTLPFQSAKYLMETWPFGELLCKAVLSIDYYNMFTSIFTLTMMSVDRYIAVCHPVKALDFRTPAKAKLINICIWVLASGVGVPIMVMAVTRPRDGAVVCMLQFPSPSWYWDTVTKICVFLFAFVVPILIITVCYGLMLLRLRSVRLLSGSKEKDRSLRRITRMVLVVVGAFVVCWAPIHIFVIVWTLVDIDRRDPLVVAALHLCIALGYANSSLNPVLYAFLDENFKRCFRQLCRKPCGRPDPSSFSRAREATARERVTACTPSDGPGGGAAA
Protocol: as §2

## CN1CC[C@]23c4c5ccc(O)c4O[C@H]2[C@@H](O)C=C[C@H]3[C@H]1C5 [Morphine, reference compound]
ICR mice [1]; 3 mg/kg IP
  No. of Writhings, Average: 0
  No. of Writhings, Individual: 0
  % Inhibition: 100%
ICR mice [2]; 3 mg/kg IP
  test animals exhibiting Straub tail phenomenon: 2 of 3

## CCC(=Nc1ccc(F)cc1)NCCCN1CC[C@]23c4c5ccc(O)c4O[C@H]2[C@@H](O)C=C[C@H]3[C@H]1C5 [KRS-6-98]
ICR mice [3]; 1 mg/kg IP
  Number of Writhings, Average: 10
  Number of Writhings, Individual: 12 and 10 and 8
  % Inhibition: 44%
ICR mice [3]; 2 mg/kg IP
  Number of Writhings, Average: 7
  Number of Writhings, Individual: 7 (2×) and 6
  % Inhibition: 61%
ICR mice [3]; 4 mg/kg IP
  Number of Writhings, Average: 7
  Number of Writhings, Individual: 10 and 7 and 4
  % Inhibition: 61%
ICR mice [3]; 8 mg/kg IP
  Number of Writhings, Average: 5
  Number of Writhings, Individual: 6 and 7 and 2
  % Inhibition: 72%
ICR mice [3]; 16 mg/kg IP
  Number of Writhings, Average: 4
  Number of Writhings, Individual: 3 and 6 and 4
  % Inhibition: 78%
ICR mice [3]; 32 mg/kg IP
  Number of Writhings, Average: 0
  Number of Writhings, Individual: 0
  % Inhibition: 100%
ICR mice [3]; 64 mg/kg IP
  Number of Writhings, Average: 0
  Number of Writhings, Individual: 0
  % Inhibition: 100%
ICR mice [3]; 128 mg/kg IP
  Number of Writhings, Average: 0
  Number of Writhings, Individual: 0
  % Inhibition: 100%
ICR mice [3]; at all dose levels from 128 down to 2 mg/kg IP
  analgesic activity in writhing model (in words): significant activity

## CCC(=Nc1ccccc1)NCCCN1CC[C@]23c4c5ccc(O)c4O[C@H]2[C@@H](O)C=CC3[C@H]1C5 (stereo partly drawn) [KRS-6-48, (5α,6α)-7,8-didehydro-4,5-epoxy-17-((N-phenylpropionamidino)-propyl)morphinan, 3,6-diol]
ICR mice [1]; 1 mg/kg IP
  No. of Writhings, Average: 14
  No. of Writhings, Individual: 10 and 20 and 13
  % Inhibition: 0%
ICR mice [1]; 2 mg/kg IP
  No. of Writhings, Average: 13
  No. of Writhings, Individual: 8 and 20 and 10
  % Inhibition: 0%
ICR mice [1]; 4 mg/kg IP
  No. of Writhings, Average: 9
  No. of Writhings, Individual: 10 and 8 and 9
  % Inhibition: 31%
ICR mice [1]; 8 mg/kg IP
  No. of Writhings, Average: 7
  No. of Writhings, Individual: 12 and 4 and 5
  % Inhibition: 46%
ICR mice [1]; 16 mg/kg IP
  No. of Writhings, Average: 6
  No. of Writhings, Individual: 1 and 13 and 4
  % Inhibition: 54%
ICR mice [1]; 32 mg/kg IP
  No. of Writhings, Average: 1
  No. of Writhings, Individual: 0 and 1 (2×)
  % Inhibition: 92%
ICR mice [1]; 64 mg/kg IP
  No. of Writhings, Average: 0
  No. of Writhings, Individual: 0
  % Inhibition: 100%
ICR mice [1]; 128 mg/kg IP
  No. of Writhings, Average: 0
  No. of Writhings, Individual: 0
  % Inhibition: 100%
ICR mice [1]; at doses of 128, 64, 32 and 16 mg/kg IP
  analgesic activity in writhing model (in words): Very significant activity
Human μ-opiate receptor
  inhibition at 10 µM: 97%
ICR mice [2]; any doses (1 to 128 mg/kg IP)
  Straub tail behaviour: did not exhibit Straub tail behaviour
Human κ-opiate receptor
  inhibition at 10 µM: 48%
Human δ-opiate receptor
  inhibition at 10 µM: 29%
